# Measured values: patent EP2135864A1, “5-(4-methanesulfonyl-phenyl)-thiazole derivatives for the treatment of acute and chronic inflammatory diseases” (FAES FARMA, S.A., priority 2008, dated 2009)
# Assays:
# IL-8 = IL-8 production by PBMC from patients with rheumatoid arthritis, CBA; type: cell-based, human; details: 24 hours, mean ± standard error, n=8
# Procedure: (§1) CBA protocol was followed according to the manufacturer's instructions. The election of microparticles was performed following the summary of Figure 1.
# (§2) The acquisition on samples was performed with the BD FACS Array Bioanalyser System (FACSArray, Becton Dickinson, San José, CA, USA) and the analysis of the results was completed with the software FCAP Array (Becton Dickinson) in a PC computer.
# (§3) Briefly, the experimental protocol consisted of a plate pre-washing out with Wash Buffer. After decantation, the mixture of capture microparticles was re-suspended in the vortex. Standards and samples were added in the adequate dilution. After permanent stirring incubation during 1 h, the PE detection reagent was added and incubated again during 2h at room temperature. After a washing-out, the acquisition was performed in the flow cytometer. Table 3. -Kit CBA Human Soluble Protein Multiplex Flex Set System.
# (§4) The effect on IL-8 production by PBMC from patients with rheumatoid arthritis was also studied. PBMC (5 x 10^4 cells per well) from 8 patients with rheumatoid arthritis were cultured in duplicate in 200 µl of complete medium supplemented with the highest solvent concentration (10^-6 M), and 10^-6 M, 10^-7 M and 10^-8 M of compound 12, in the presence and in the absence of either LPS (10 µg/ml) or anti-CD3 (12.5 ng/ml) + anti-CD28 (1/3x10^5), during 24 hours. Culture supernatants were frozen at -20°C and IL-8 concentration was quantified by BD FACS Array Bioanalyser by using CBA Flex Set, specific to determine IL-8 concentration, following the manufacturer instructions.
# IL-10 = IL-10 production by PBMC from patients with rheumatoid arthritis, CBA; type: cell-based, human; details: 24 hours, mean ± standard error, n=8
# Procedure: as §1, §2, §3
# as §4, with “On the other hand,” for “The effect on IL-8 production by PBMC from patients with rheumatoid arthritis was also studied.”, “12” for “12,”, “and” for “and in the”, “ng/ml),” for “ng/ml)”, “IL-10” for “IL-8”, “assayed” for “quantified”
compound,measurement,setting,value
"Cc1nc(OC2CCCC2)c(-c2ccc(S(C)(=O)=O)cc2)s1 [compound 12, 4-cyclopentyloxy-5-(4-methylsulfonyl-phenyl)-2-methylthiazole]",IL-8 production in PMBC from patients with rheumatoid arthritis,"IL-8; LPS (10µg/ml), 10^-6 M, vehicle 150759.65±22966.06, p 0.012",185536.78±22000.00 (0.012) pg/mL
same,IL-8 production in PMBC from patients with rheumatoid arthritis,"IL-8; LPS (10µg/ml), 10^-7 M, vehicle 150759.65±22966.06, p 0.208",174156.23±13385.66 (0.208) pg/mL
same,IL-8 production in PMBC from patients with rheumatoid arthritis,"IL-8; LPS (10µg/ml), 10^-8 M, vehicle 150759.65±22966.06, p 0.012",184541.37±21500.00 (0.012) pg/mL
same,IL-8 production in PMBC from patients with rheumatoid arthritis,"IL-8; anti-CD3 (12.5 ng/ml) + anti-CD28 (1/3x10^5), 10^-6 M, vehicle 118017.97±21116.00, p 0.263",124576.09±14605.02 (0.263) pg/mL
same,IL-8 production in PMBC from patients with rheumatoid arthritis,"IL-8; anti-CD3 (12.5 ng/ml) + anti-CD28 (1/3x10^5), 10^-7 M, vehicle 118017.97±21116.00, p 0.889",109607.00±18310.15 (0.889) pg/mL
same,IL-8 production in PMBC from patients with rheumatoid arthritis,"IL-8; anti-CD3 (12.5 ng/ml) + anti-CD28 (1/3x10^5), 10^-8 M, vehicle 118017.97±21116.00, p 0.575",121587.88±16117.25 (0.575) pg/mL
same,IL-8 production in PMBC from patients with rheumatoid arthritis,"IL-8; medium, 10^-6 M, vehicle 57877.64±11143.52, p 0.208",98012.08±8395.97 (0.208) pg/mL
same,IL-8 production in PMBC from patients with rheumatoid arthritis,"IL-8; medium, 10^-7 M, vehicle 57877.64±11143.52, p 0.161",96498.50±10784.62 (0.161) pg/mL
same,IL-8 production in PMBC from patients with rheumatoid arthritis,"IL-8; medium, 10^-8 M, vehicle 57877.64±11143.52, p 0.123",93977.67±9247.38 (0.123) pg/mL
same,IL-10 production in PMBC from patients with rheumatoid arthritis,"IL-10; LPS (10µg/ml), 10^-6 M, vehicle 2388.64±300.00, p 0.069",2787.12±416.91 (0.069) pg/mL
same,IL-10 production in PMBC from patients with rheumatoid arthritis,"IL-10; LPS (10µg/ml), 10^-7 M, vehicle 2388.64±300.00, p 0.327",2597.85±513.19 (0.327) pg/mL
same,IL-10 production in PMBC from patients with rheumatoid arthritis,"IL-10; LPS (10µg/ml), 10^-8 M, vehicle 2388.64±300.00, p 0.025",3000.00±400.00 (0.025) pg/mL
same,IL-10 production in PMBC from patients with rheumatoid arthritis,"IL-10; anti-CD3 (12.5 ng/ml) + anti-CD28 (1/3x10^5), 10^-6 M, vehicle 836.39±189.09, p 0.484",976.96±187.99 (0.484) pg/mL
same,IL-10 production in PMBC from patients with rheumatoid arthritis,"IL-10; anti-CD3 (12.5 ng/ml) + anti-CD28 (1/3x10^5), 10^-7 M, vehicle 836.39±189.09, p 1.000",805.41±141.23 (1.000) pg/mL
same,IL-10 production in PMBC from patients with rheumatoid arthritis,"IL-10; anti-CD3 (12.5 ng/ml) + anti-CD28 (1/3x10^5), 10^-8 M, vehicle 836.39±189.09, p 0.674",872.06±150.87 (0.674) pg/mL
same,IL-10 production in PMBC from patients with rheumatoid arthritis,"IL-10; medium, 10^-6 M, vehicle 452.69±107.47, p 0.674",682.50±113.65 (0.674) pg/mL
same,IL-10 production in PMBC from patients with rheumatoid arthritis,"IL-10; medium, 10^-7 M, vehicle 452.69±107.47, p 0.401",798.92±144.46 (0.401) pg/mL
same,IL-10 production in PMBC from patients with rheumatoid arthritis,"IL-10; medium, 10^-8 M, vehicle 452.69±107.47, p 0.263",468.14±65.80 (0.263) pg/mL
